The source of these data is US12065443B2, “Compounds and pharmaceutical compositions thereof for the treatment of diseases” (priority 2017, dated 2024).

By IC50 is commonly meant the point on the concentration scale where inhibition reaches its midpoint. Broadly, the EC50 is the concentration needed to bring the measured effect to its halfway point. A low value points to a more potent agent.

For one test, the target named is T1, SIK1 (Homo sapiens, UniProt P57059).
T1 construct: purchased Carna Biosciences 02-131
T1 sequence (P57059 whole entry): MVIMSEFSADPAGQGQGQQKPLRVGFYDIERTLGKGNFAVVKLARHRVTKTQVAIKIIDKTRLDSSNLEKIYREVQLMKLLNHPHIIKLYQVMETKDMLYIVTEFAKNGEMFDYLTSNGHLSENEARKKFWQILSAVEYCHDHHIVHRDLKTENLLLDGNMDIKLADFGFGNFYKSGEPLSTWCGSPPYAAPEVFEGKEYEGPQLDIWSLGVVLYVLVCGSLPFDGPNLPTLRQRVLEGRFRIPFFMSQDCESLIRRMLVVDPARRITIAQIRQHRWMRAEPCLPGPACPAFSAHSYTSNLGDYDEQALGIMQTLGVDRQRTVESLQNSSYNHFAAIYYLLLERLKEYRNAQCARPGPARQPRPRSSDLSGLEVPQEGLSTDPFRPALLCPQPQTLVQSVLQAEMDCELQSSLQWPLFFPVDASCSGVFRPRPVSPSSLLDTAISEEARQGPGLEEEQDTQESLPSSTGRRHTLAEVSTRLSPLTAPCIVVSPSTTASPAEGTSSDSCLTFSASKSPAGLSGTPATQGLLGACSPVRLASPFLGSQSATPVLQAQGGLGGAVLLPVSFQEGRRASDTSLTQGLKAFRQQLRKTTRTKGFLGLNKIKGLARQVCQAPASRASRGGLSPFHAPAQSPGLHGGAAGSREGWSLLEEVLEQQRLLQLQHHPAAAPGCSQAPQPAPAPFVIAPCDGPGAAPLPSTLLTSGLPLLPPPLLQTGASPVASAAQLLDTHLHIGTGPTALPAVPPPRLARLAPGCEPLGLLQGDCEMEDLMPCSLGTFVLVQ
As to the kind of experiment: biochemical. To be noted: 33P radioactive SIK kinase assay, AMARA peptide, 10 μM ATP; read-out: SIK1 IC50. The essentials: (§1)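 AMARA peptide phosphorylation by SIK1–3 is quantified through ^33P uptake from a labeled/unlabeled ATP blend. Staurosporine at 10 μM final defines full inhibition, 1% DMSO the uninhibited signal. Quench uses phosphoric acid; counting follows filter capture.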

The target of a further test is T2, SIK2 (Homo sapiens, UniProt Q9H0K1).
T2 construct: purchased ThermoFisher Scientific PV4792
T2 sequence (Q9H0K1 whole entry): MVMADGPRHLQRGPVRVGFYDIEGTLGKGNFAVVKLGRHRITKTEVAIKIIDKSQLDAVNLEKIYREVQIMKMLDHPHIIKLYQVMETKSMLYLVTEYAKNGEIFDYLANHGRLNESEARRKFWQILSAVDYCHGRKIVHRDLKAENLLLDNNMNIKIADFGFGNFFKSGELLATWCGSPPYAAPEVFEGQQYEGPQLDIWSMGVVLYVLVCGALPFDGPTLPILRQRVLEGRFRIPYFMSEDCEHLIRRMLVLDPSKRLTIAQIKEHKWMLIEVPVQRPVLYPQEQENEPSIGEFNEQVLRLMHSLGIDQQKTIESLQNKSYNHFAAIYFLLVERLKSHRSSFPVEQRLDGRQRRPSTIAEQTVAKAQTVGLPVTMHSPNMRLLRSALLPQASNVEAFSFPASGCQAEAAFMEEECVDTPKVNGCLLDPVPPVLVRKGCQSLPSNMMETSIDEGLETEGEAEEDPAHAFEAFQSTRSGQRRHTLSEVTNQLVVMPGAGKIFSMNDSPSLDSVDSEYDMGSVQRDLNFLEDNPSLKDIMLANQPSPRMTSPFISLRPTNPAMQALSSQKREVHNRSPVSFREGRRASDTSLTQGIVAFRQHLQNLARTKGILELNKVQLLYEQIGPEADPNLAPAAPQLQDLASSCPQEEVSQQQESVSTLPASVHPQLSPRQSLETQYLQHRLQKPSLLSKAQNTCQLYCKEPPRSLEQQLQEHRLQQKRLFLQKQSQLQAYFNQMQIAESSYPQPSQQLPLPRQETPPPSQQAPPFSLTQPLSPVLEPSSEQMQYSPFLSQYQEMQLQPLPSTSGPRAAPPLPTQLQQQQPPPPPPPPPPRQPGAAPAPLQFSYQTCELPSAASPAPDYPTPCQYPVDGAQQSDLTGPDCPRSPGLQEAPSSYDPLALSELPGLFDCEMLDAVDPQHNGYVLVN
In words: biochemical. Conditions: 33P radioactive SIK kinase assay, AMARA peptide, 10 μM ATP. The essentials: as §1

The next test has as its target T3, SIK3 (Homo sapiens, UniProt Q9Y2K2).
T3 construct: purchased SignalChem S12-11G-100
As to the kind of experiment: biochemical. Put shortly:
as §1

The subject of test [1] is LPS driven TNFα secretion in Peripheral Blood Mononuclear Cells (PBMC). As to the kind of experiment: cells. To be noted: Homo sapiens, LPS 1 ng/mL, supernatant after 18-20 h, ELISA. The class given is cell-based.
Protocol: This assay measures the inhibition of LPS driven TNFα secretion by a test compound in Peripheral Blood Mononuclear Cells (PBMC), which in turn correlates with SIK inhibition.
PBMCs are isolated from human blood samples (buffy coats). The buffy coat is aseptically transferred into a 50 mL Falcon™ tube, and diluted 1/2 in Phosphate Buffered Saline (PBS). […] The tubes are centrifuged for 35 min at 400× g in temperature controlled centrifuge, without brake, at 25° C. PBMCs are aspirated from the white interface layer between sample and Lymphoprep. PBMCs are washed five times in PBS. […] The PBMCs are finally seeded at 400,000 PBMC/160 μL/96-well.
A compound dilution plate is made in 100% DMSO by 3-fold dilution of 10 mM stock solution of test compound. An intermediate dilution plate (10× final concentration) is made by diluting the compound dilution plate 50-fold in RPMI medium.
20 μL of the 10× final concentration compound is added to the cells and incubated for 1 hour at 37° C. before addition of trigger. No trigger conditions/trigger conditions are spiked with equal final DMSO concentrations of 0.2% DMSO. 20 μL of 10×LPS (final concentration 1 ng/mL) solution are added to all wells except for the ‘no trigger wells’ where 20 μL medium is added. Supernatant is collected after 18-20 h for IL-10 and TNFα determination using ELISA.
The plate is then washed once with PBST (PBS+0.05% Tween20) and once with PBS followed by the addition of 100 μL of blocking buffer (1% Bovine Serum Albumin (BSA)-5% Sucrose) and plates are sealed and incubated for at least 4 h at RT. After washing the plate once with PBST and once with PBS, 40 μL of standard or sample are added (TNFα standard curve is prepared using a 1/2 serial dilution starting from 16000 pg/mL; dilutions are made in dilution buffer (PBS+1% BSA)). Plates are washed twice with PBST, and once with PBS, after which 35 μL of the detection antibody is added (final concentration 0.25 μg/mL diluted in dilution buffer) and plates are incubated for at least 2 h at RT. Plates are washed twice with PBST, and once with PBS, where after 35 μL of Strep-HRP conjugate (0.5 μg/mL final concentration diluted in dilution buffer) is added. Plates are incubated in the dark, at RT for at least 45 min but no longer than 1 hour. Plates are washed twice with PBST, and once with PBS. Thereafter, 50 μL of luminol substrate is added to each well (prepared according to manufacturer's instructions), and incubated for 5 min at RT protected from light.
To measure the inhibition of LPS induced TNFα, percentage inhibition (PIN) values are calculated for all concentrations tested, compared to controls.
PIN values are plotted in concentration-response and EC50 values are derived using GraphPad Prism Software, applying 4-parameter nonlinear regression (sigmoidal) curve fitting.
The test system of test [2] is LPS-induced TNFα secretion in monocyte-derived macrophages (MdM). As to the kind of experiment: MdM assay: LPS-triggered TNFα (ELISA). Format: cell-based, human. To be noted: Homo sapiens, Macrophage, LPS-triggered TNFα inhibition. The essentials: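 Human CD14+ monocytes isolated from buffy-coat PBMCs by magnetic beads, differentiated to macrophages; on day 10 compound preincubated 1 h at 37 °C, then LPS 200 ng/mL added (0.2% DMSO). Supernatant taken after 20 h; TNFα quantified by sandwich ELISA against standard curve.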
In general terms: In an ELISA, binding on a coated surface is turned into a signal by an enzyme label.

Test [3] concerns LPS triggered IL-10 secretion in monocyte-derived macrophages (MdM). As to the kind of experiment: MdM assay: LPS-triggered IL-10 (ELISA). To be noted: maximal fold change vs LPS only, median across assays. The class given is cell-based, human. The essentials: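 CD14+ monocytes isolated from human buffy-coat PBMCs and differentiated to macrophages for 10 days. Cells pre-treated with compound 1 h at 37° C (0.2% DMSO), then stimulated with 200 ng/mL LPS; IL-10 in supernatant at 2 h measured by ELISA (A450). Maximal fold change versus LPS only reported as median of two or more runs.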

T3 sequence (Q9Y2K2 whole entry): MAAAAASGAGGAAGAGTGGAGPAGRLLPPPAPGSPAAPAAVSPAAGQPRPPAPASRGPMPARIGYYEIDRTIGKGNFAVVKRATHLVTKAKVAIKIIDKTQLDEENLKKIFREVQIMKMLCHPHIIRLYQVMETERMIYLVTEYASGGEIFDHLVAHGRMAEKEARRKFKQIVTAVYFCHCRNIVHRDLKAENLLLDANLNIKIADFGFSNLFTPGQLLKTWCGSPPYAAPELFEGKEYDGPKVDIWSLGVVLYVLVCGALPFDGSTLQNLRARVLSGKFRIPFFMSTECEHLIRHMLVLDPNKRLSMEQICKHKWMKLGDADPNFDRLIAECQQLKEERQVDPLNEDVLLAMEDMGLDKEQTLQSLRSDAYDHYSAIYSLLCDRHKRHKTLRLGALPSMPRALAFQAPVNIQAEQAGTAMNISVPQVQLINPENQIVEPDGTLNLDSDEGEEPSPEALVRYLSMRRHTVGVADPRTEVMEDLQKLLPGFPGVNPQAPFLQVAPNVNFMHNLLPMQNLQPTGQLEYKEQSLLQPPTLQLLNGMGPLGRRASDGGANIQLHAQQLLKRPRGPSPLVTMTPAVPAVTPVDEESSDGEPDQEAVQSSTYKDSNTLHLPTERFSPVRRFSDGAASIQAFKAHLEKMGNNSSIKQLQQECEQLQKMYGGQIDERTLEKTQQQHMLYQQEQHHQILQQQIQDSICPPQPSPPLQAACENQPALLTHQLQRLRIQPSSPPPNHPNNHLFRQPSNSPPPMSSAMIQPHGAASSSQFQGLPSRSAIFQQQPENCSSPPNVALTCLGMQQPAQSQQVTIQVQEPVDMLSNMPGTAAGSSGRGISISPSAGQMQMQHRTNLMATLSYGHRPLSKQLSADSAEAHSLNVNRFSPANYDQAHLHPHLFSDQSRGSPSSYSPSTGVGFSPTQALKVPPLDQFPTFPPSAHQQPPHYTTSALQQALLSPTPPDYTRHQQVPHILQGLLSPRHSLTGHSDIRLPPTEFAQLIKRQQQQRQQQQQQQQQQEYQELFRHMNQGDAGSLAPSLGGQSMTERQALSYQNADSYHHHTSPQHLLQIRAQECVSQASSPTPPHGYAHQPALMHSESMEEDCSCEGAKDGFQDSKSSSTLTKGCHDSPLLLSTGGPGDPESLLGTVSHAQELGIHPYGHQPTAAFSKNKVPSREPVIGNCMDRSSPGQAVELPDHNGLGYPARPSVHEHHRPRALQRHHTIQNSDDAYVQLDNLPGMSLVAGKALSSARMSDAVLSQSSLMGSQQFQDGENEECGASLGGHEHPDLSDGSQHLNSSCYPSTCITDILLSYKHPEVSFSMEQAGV

For `CCNC(=O)c1c(OC)cc(-n2cnc3cc(-c4cnn(CCN5CCOCC5)c4)ccc32)cc1OC(F)F` [compound 57, 2-(difluoromethoxy)-N-ethyl-6-methoxy-4-[5-[1-(2-morpholinoethyl)pyrazol-4-yl]benzimidazol-1-yl]benzamide], the figures for the half-inhibitory concentration (IC50) at SIK1, on SIK2 and on SIK3 were 10 to 100 nM, 0.01 to 10 nM and 0.01 to 10 nM, respectively. Also, the values for the EC50 in test [1] and in test [2] were 0.1 to 100 nM and 100 to 1000 nM, respectively. Further, in test [3], the “IL-10 FCmax median” value is on record as “++ (>1.5-4.5)”.

Take `COc1cc(-c2cnc3cc(-c4cnn(C)c4)ccn23)cc(OC)c1C(=O)N[C@@H](C)C(F)(F)F` [compound 132, 2,6-dimethoxy-4-[7-(1-methylpyrazol-4-yl)imidazo[1,2-a]pyridin-3-yl]-N-[(1S)-2,2,2-trifluoro-1-methyl-ethyl]benzamide]: the IC50 at SIK1, on SIK2 and on SIK3 was 10 to 100 nM throughout. Moreover, the EC50 in test [1] and in test [2] was 100 to 1000 nM throughout. Besides, the “IL-10 FCmax median” value in test [3] is recorded as “+ (≤1.5)”.

On to `COc1cc(-n2cnc3cc(-c4cnn(C)c4)ccc32)cc(OC)c1C(=O)NCC(F)(F)F` [Cpd 25, 2,6-dimethoxy-4-[5-(1-methylpyrazol-4-yl)benzimidazol-1-yl]-N-(2,2,2-trifluoroethyl)benzamide], for which the values for the IC50 on SIK1, on SIK2 and against SIK3 were 10 to 100 nM, 0.01 to 10 nM and 0.01 to 10 nM, respectively. Further, the EC50 in test [1] and in test [2] was 0.1 to 100 nM each time. Further, the “IL-10 FCmax median” value in test [3] is given as “++ (>1.5-4.5)”.

`COc1cc(-n2cnc3cc(-c4cnn(CCN5CCOCC5)c4)ccc32)cc(OC(F)F)c1C(=O)NC1CC1` [compound 56, N-cyclopropyl-2-(difluoromethoxy)-6-methoxy-4-[5-[1-(2-morpholinoethyl)pyrazol-4-yl]benzimidazol-1-yl]benzamide]: the IC50 at SIK1, on SIK2 and on SIK3 was 0.01 to 10 nM each time. Moreover, the EC50 in test [1] and in test [2] was 0.1 to 100 nM in each case. In test [3], the “IL-10 FCmax median” value was “++ (>1.5-4.5)”.

`COc1cc(-n2cnc3cc(-c4cnn(C5CC5)c4)ccc32)cc(OC)c1C(=O)NCC(F)(F)F` [compound 96, 4-[5-(l-cyclopropylpyrazol-4-yl)benzimidazol-1-yl]-2,6-dimethoxy-N-(2,2,2-trifluoroethyl)benzamide]: the IC50 at SIK1 was in the range of 10 to 100 nM; on SIK2, 0.01 to 10 nM; against SIK3, 0.01 to 10 nM. Also, the EC50 in test [1] and in test [2] was 0.1 to 100 nM each time. Also, in test [3], the “IL-10 FCmax median” value is reported as “++ (>1.5-4.5)”.

As to `COc1cc(-c2cnc3cc(-c4cnn(C)c4)ccn23)cc(OC)c1C(=O)NC1CC1` [compound 102, N-cyclopropyl-2,6-dimethoxy-4-[7-(1-methylpyrazol-4-yl)imidazo[1,2-a]pyridin-3-yl]benzamide], the IC50 on SIK1, on SIK2 and against SIK3 was 0.01 to 10 nM in each case. In addition, the EC50 in test [1] and in test [2] was 0.1 to 100 nM each time. Also, the “IL-10 FCmax median” value in test [3] is given as “++ (>1.5-4.5)”.

Turning to `COc1cc(-n2cnc3cc(-c4cnn(C)c4)ccc32)cc(OC)c1C(=O)N1CC(C)(C)C1` [compound 179, [2,6-dimcthoxy-4-[5-(1-methylpyrazol-4-yl)benzimidazol-1-yl]phenyl]-(3,3-dimethylazetidin-1-yl)methanone], the IC50 on SIK1, at SIK2 and at SIK3 was 10 to 100 nM throughout. Besides, the EC50 in test [1] and in test [2] was 100 to 1000 nM each time.

As for `COc1cc(-c2cnc3cc(-c4cnn(C)c4)ccn23)cc(OC(F)F)c1C(=O)NC1CC1` [Cpd 124, N-cyclopropyl-2-(difluoromethoxy)-6-methoxy-4-[7-(1-methylpyrazol-4-yl)imidazo[1,2-a]pyridin-3-yl]benzamide], the IC50 on SIK1, at SIK2 and against SIK3 was 0.01 to 10 nM in each case. The EC50 in test [1] and in test [2] was 0.1 to 100 nM each time. Besides, the “IL-10 FCmax median” value in test [3] was “++ (>1.5-4.5)”.

As to `CCCn1cc(-c2ccc3c(c2)ncn3-c2cc(OC)c(C(=O)NCC(F)(F)F)c(OC)c2)cn1` [compound 103, 2,6-dimethoxy-4-[5-(1-propylpyrazol-4-yl)benzimidazol-1-yl]-N-(2,2,2-trifluoroethyl)benzamide], the IC50 on SIK1, at SIK2 and against SIK3 was 0.01 to 10 nM each time. Moreover, the EC50 in test [1] and in test [2] was 0.1 to 100 nM in each case.

Regarding `CCNC(=O)c1c(OC)cc(-c2cnn3cc(-c4cnn(C)c4)ccc23)cc1OC(F)F` [compound 117, 2-(difluoromethoxy)-N-ethyl-6-methoxy-4-[6-(1-methylpyrazol-4-yl)pyrazolo[1,5-a]pyridin-3-yl]benzamide], the IC50 on SIK1, at SIK2 and at SIK3 was 0.01 to 10 nM throughout. Besides, the EC50 in test [1] and in test [2] was 0.1 to 100 nM each time.

Consider `COc1cc(-n2cnc3cc(-c4cnn(C)c4)ccc32)cc(OC)c1C(=O)NCC(F)F` [compound 78, N-(2,2-difluoroethyl)-2,6-dimethoxy-4-[5-(1-methylpyrazol-4-yl)benzimidazol-1-yl]benzamide], for which the IC50 on SIK1 lay within 10 to 100 nM; on SIK2, 0.01 to 10 nM; on SIK3, 0.01 to 10 nM. Further, the EC50 in test [1] is 0.1 to 100 nM; in test [2] it was 100 to 1000 nM. The “IL-10 FCmax median” value in test [3] is given as “++ (>1.5-4.5)”.

Regarding `COc1cc(-c2cnc3cc(-c4cnn(C)c4)ccn23)cc(OC)c1C(=O)NCC#N` [compound 122, N-(cyanomethyl)-2,6-dimethoxy-4-[7-(1-methylpyrazol-4-yl)imidazo[1,2-a]pyridin-3-yl]benzamide], the IC50 at SIK1, on SIK2 and against SIK3 was 0.01 to 10 nM in each case. The EC50 in test [1] and in test [2] was 0.1 to 100 nM in each case. Besides, the “IL-10 FCmax median” value in test [3] is reported as “++ (>1.5-4.5)”.

Turning to `COCCn1cc(-c2ccc3c(c2)ncn3-c2cc(OC)c(C(=O)NCC(F)(F)F)c(OC)c2)cn1` [compound 84, 2,6-dimethoxy-4-[5-[1-(2-methoxyethyl)pyrazol-4-yl]benzimidazol-1-yl]-N-(2,2,2-trifluoroethyl)benzamide], the IC50 on SIK1 is 10 to 100 nM; at SIK2, 0.01 to 10 nM; on SIK3 it was 0.01 to 10 nM. The EC50 in test [1] and in test [2] was 0.1 to 100 nM each time. In addition, in test [3], the “IL-10 FCmax median” value is on record as “++ (>1.5-4.5)”.

For the molecule `COc1cc(-c2cnc3cc(-c4cnn(C)c4)ccn23)cc(F)c1C(=O)NCC(F)(F)F` [compound 203, 2-fluoro-6-methoxy-4-[7-(1-methylpyrazol-4-yl)imidazo[1,2-a]pyridin-3-yl]-N-(2,2,2-trifluoroethyl)benzamide], the IC50 on SIK1 lay within 10 to 100 nM; on SIK2 it was 0.01 to 10 nM; at SIK3, 0.01 to 10 nM. Also, the EC50 in test [1] and in test [2] was 0.1 to 100 nM in each case. Moreover, in test [3], the “IL-10 FCmax median” value is listed as “+++ (>4.5)”.

Turning to `COc1cc(-c2cnc3cc(-c4cnn(C)c4)cnn23)cc(OC)c1C(=O)NC1CC1` [compound 112, N-cyclopropyl-2,6-dimethoxy-4-[7-(1-methylpyrazol-4-yl)imidazo[1,2-b]pvridazin-3-yl]benzamide], the half-inhibitory concentration (IC50) on SIK1, on SIK2 and at SIK3 was 0.01 to 10 nM in each case. For the same molecule, the EC50 in test [1] and in test [2] was 0.1 to 100 nM each time. For the same molecule, in test [3], the “IL-10 FCmax median” value is reported as “+ (≤1.5)”.

`CCNC(=O)c1c(OC)cc(-c2cnc3cc(-c4cc(C)no4)ccn23)cc1OC(F)F` [compound 123, 2-(difluoromethoxy)-N-ethyl-6-methoxy-4-[7-(3-methylisoxazol-5-yl)imidazo[1,2-a]pyridin-3-yl]benzamide]: the IC50 on SIK1 was in the range of 10 to 100 nM; at SIK2, 0.01 to 10 nM; at SIK3, 0.01 to 10 nM. Also, the EC50 in test [1] and in test [2] was 0.1 to 100 nM each time. The “IL-10 FCmax median” value in test [3] is “++ (>1.5-4.5)”.

On to `COc1cc(-n2cnc3cc(-c4cnn(C5CN(CC#N)C5)c4)ccc32)cc(OC)c1C(=O)NCC(F)(F)F` [Cpd 100, 4-[5-[1-[1-(cyanomethyl)azetidin-3-yl]pyrazol-4-yl]benzimidazol-1-yl]-2,6-dimethoxy-N-(2,2,2-trifluoroethyl)benzamide], for which the IC50 at SIK1 was 10 to 100 nM; at SIK2, 0.01 to 10 nM; on SIK3, 0.01 to 10 nM. Moreover, the results for the EC50 in test [1] and in test [2] were 0.1 to 100 nM and 100 to 1000 nM, respectively.
